System: tubulin (αβ-tubulin; colchicine site in β-subunit)
Assay: [3H]colchicine competition on purified tubulin
Type: biochemical

Row | Compound | IC50 [nM]
1 | COc1ccc(/C=C\c2cc(OC)c(OC)c(OC)c2)cc1O [combretastatin A-4] | 1200
2 | O=c1cc(-c2ccccc2)[nH]c2ccc3c(ccn3CC3CC3)c12 [MG-2477, 3-cyclopropylmethyl-7-phenyl-3H-pyrrolo[3,2-f]quinolin-9(6H)-one] | 900

From publication PMC3234688 (2011)
